Data: article PMC4823785, “A Tricholoma matsutake Peptide with Angiotensin Converting Enzyme Inhibitory and Antioxidative Activities and Antihypertensive Effects in Spontaneously Hypertensive Rats” (Scientific Reports, 2016)
Like-named read-outs stand apart in the source and are kept apart here. Where no end group is shown, it is not given here.

Key:
[1] = tested on: spontaneously hypertensive rats; assay: Antihypertensive action in spontaneously hypertensive rats (SBP, tail-cuff); details: SHRs, oral, 100 mg/kg BW, at 2 h
Description: All experiments were performed in accordance with the Regulations of Experimental Animal Administration issued by the State Committee of Science and Technology of the People’s Republic of China and also with the approval of the Animal Experimentation Ethics Committee of The Chinese University of Hong Kong which had been procured prior to the animal experiments. SHRs with systolic blood pressure (SBP) higher than 180 mmHg were randomly divided into six groups after acclimation for 1 week. During the acclimatization period prior to the test, the blood pressures of the rats were measured four times weekly. Each group containing four rats. […] The group treated with crude water extract of T. matsutake received the extract at two different concentrations: 200 mg/kg body weight and 400 mg/kg body weight. SBP was measured thrice at each of the following time points: 0, 0.5, 2, 4, 6 and 8 h after drug/sample administration, using a tail-cuff method with a programmable BP-100A electro-sphygmomanometer (Chengdu Taimeng Software Co., Ltd., Chengdu, China).

ACE [2] = details: cited from earlier work
ACE [3] = biological target: T1, ACE (Oryctolagus cuniculus, UniProt P12822); assay: Assay of ACE inhibitory activity (spectrophotometric, HHL substrate); format: biochemical, rabbit; details: chemically synthesized peptides; means ± S.D. of three determinations
T1 construct: ACE was prepared using fresh rabbit lungs according to the protocol reported by Hayakari et al; from tissue; host or cells: fresh rabbit lungs (supernatant of homogenate)
T1 sequence (P12822 34-1310): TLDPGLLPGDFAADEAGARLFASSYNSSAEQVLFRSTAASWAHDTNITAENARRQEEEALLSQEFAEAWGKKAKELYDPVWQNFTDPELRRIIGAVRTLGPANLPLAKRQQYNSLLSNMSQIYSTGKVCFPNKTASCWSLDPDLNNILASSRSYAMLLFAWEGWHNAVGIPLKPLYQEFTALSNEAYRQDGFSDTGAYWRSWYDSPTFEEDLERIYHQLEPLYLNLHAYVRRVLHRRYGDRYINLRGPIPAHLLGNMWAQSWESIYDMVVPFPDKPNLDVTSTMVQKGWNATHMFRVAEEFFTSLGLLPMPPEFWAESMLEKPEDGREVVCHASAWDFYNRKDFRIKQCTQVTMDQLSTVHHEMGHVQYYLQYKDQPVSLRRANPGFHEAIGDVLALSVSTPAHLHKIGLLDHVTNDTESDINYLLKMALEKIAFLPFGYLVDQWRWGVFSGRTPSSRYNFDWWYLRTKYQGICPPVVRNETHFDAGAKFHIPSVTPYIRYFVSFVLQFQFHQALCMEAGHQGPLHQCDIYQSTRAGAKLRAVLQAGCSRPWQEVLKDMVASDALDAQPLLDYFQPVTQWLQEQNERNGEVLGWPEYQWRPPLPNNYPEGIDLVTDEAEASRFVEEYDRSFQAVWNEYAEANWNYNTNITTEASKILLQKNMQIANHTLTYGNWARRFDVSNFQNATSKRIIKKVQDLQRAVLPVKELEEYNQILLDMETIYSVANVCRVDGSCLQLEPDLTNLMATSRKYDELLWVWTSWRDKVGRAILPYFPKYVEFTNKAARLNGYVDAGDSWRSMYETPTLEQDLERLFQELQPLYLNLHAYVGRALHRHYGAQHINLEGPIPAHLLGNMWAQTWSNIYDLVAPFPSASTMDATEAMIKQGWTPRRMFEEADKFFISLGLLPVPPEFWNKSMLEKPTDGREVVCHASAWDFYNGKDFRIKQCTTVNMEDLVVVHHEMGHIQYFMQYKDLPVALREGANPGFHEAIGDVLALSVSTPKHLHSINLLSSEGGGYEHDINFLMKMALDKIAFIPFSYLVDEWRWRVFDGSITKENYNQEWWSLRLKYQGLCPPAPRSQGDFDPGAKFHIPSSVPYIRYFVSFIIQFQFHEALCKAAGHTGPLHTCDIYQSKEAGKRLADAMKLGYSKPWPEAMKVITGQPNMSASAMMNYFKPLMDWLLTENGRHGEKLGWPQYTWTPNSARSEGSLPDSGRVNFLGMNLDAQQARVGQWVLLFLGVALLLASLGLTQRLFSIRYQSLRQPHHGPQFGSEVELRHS
Description: ACE was prepared using fresh rabbit lungs according to the protocol reported by Hayakari et al.[35] with some modifications. After washing with ice-cold 0.15 M NaCl, the rabbit lungs without connective tissues were cut up to small pieces and homogenized in 10 volumes of ice-old 0.1 M sodium borate buffer (pH 8.3) containing 0.25 M sucrose and 0.1 mM PMSF. The homogenate was centrifuged at 9,000 rpm for 40 min at 4 °C after dialysis at 4 °C overnight in 0.1 M sodium borate buffer (pH 8.3). The resulting supernatant was centrifuged at 9,000 rpm for 40 min at 4 °C again. The ACE activity in the supernatant was determined and the supernatant was aliquoted and then stored at −20 °C for further experiments.
The ACE inhibitory activity was assayed by using a spectrophotometric method following the protocol described by Cushman[36] with modifications. Briefly, an aliquot (20 μL) of the sample was mixed with 20 μL ACE and 150 μL 5 mM HHL in 0.1 M borate buffer (pH 8.3) containing 0.3 M NaCl. The reaction mixture was incubated at 37 °C for 30 min, and then the reaction was terminated by adding 500 μL 1 M HCl. The hippuric acid formed was extracted with 1.2 mL ethyl acetate and centrifuged at 4,000 rpm for 10 min. Then 800 μL of the upper organic phase was heat-evaporated at 95 °C for 35 min to remove ethyl acetate. The dried residue was dissolved in 800 μL distilled water and vortex mixed, and the absorbance was measured spectrophotometrically at 228 nm to estimate ACE inhibitory activity. ACE-inhibitory activity was calculated by using the equation 1: […]
where A was the absorbance of the solution containing ACE and inhibitor, B was the absorbance of solution containing ACE and inhibitor but terminated in advance, C was the absorbance of the solution containing ACE without inhibitor, and D was the absorbance of the solution containing ACE without inhibitor but terminated in advance. The concentration of the inhibitor required to inhibit 50% of the ACE activity under the above assay conditions was defined as IC50.

[4] = mushroom species printed in the row: Tricholoma matsutake, ref not given
[5] = peptide from Pleurotus cystidiosus
[6] = peptide from Tricholoma giganteum
[7] = peptide from Hypsizygus marmoreus

C[C@H](CS)C(=O)N1CCC[C@H]1C(=O)O [captopril]
maximum decrease in SBP [1]: 38 mm Hg

AHEPVK
IC50 (ACE [2]; [4]): 63000 nM
Mode of inhibitory of ACE (ACE [2]; [4]): Competitive
IC50 (ACE [2]; [5]): 62800 nM
Mode of inhibitory of ACE (ACE [2]; [5]): Competitive

GPSMR
IC50 (ACE [2]; [5]): 278000 nM
Mode of inhibitory of ACE (ACE [2]; [5]): Competitive

GQGGP
IC50 (ACE [2]; peptide from Pholiota adiposa): 100 nM

GQP
IC50 (ACE [2]; [6]): 130 nM
Mode of inhibitory of ACE (ACE [2]; [6]): Competitive

IISKIK [IISKIK]
IC50 (ACE [3]): 1190 ± 260 nM

ILSKLK [ILSKLK]
IC50 (ACE [3]): 4020 ± 310 nM

LIDKVVK [LIDKVVK]
IC50 (ACE [3]): 620 ± 420 nM

LLVTLKK [LLVTLKK]
IC50 (ACE [3]): 950 ± 120 nM

LSMGSASLSP
IC50 (ACE [2]; [7]): 330 nM
Mode of inhibitory of ACE (ACE [2]; [7]): Non-competitive

PSSNK
IC50 (ACE [2]; peptide from Agaricus bisporus): 129000 nM
Mode of inhibitory of ACE (ACE [2]; peptide from Agaricus bisporus): Non- competitive

RIGLF
IC50 (ACE [2]; peptide from Agaricus bisporus): 116000 nM
Mode of inhibitory of ACE (ACE [2]; peptide from Agaricus bisporus): Competitive

RLPSEFDLSAFLRA
IC50 (ACE [2]; peptide from P. cornucopiae): 280 nM
Mode of inhibitory of ACE (ACE [2]; peptide from P. cornucopiae): Competitive

RLSGQTIEVTSEYLFRH
IC50 (ACE [2]; peptide from P. cornucopiae): 560 nM
Mode of inhibitory of ACE (ACE [2]; peptide from P. cornucopiae): Non-competitive

VIQKYP
IC50 (ACE [2]; peptide from Grifola frondosa): 120 nM
Mode of inhibitory of ACE (ACE [2]; peptide from Grifola frondosa): Competitive

WALKGYK [TMP, WALKGYK]
IC50 (ACE [3]): 400 ± 290 nM
